{"source": "patent USRE46698E1", "about": "“Use of cyclohexanol derivatives as antimicrobial active compounds” (MERCK PATENT GMBH, priority 2011, dated 2018)", "key": {"Malassezia furfur": {"tested_on": "Malassezia furfur", "experiment": "Antimicrobial action, microbe count (Example 6)", "assay_type": "cell-based", "settings": "conc. 1.0%, H2O, count t0 4.0 × 10^2", "protocol": "(§1) For sample preparation, the substances being investigated are each dissolved or homogeneously dispersed in an amount of 1.0% in a water/ethanol mixture (12% of ethanol) and subsequently diluted with bacteria suspension in the ratio 1 to 2. P. acnes (ATCC 6919) is pre-incubated under anaerobic conditions for 48 h at 35° C. on RMC agar (Merck 1.05410). A bacteria suspension having an optical density (OD) of about 1.5 is subsequently prepared in RMC broth (Merck 1.05411, double-concentrated). 150 μl of freshly prepared sample and 100 μl of paraffin are added to 150 μl of bacteria suspension per well. The optical density is determined over the course of time at 37° C. using a Bioscreen C™ analyser compared with the negative control (=vehicle without test substance). Compared with the negative control, reduced optical densities confirm growth-inhibiting substance actions.\n(§2) For sample preparation, the substances being investigated are each dissolved or homogeneously dispersed in an amount of 1.0% in a water/ethanol mixture (12% of ethanol) (=sample). A bacteria suspension of S. epidermidis (ATCC 12228) having an optical density of 1.0 in CASO broth (Merck 1.05459) is diluted 1:10000 with CASO broth. 500 μl of sample are added to 500 μl of bacteria suspension, and the mixture is incubated at 35° C. for 24 h. After the incubation, the test batches are diluted to −6 in 10 unit steps, and 0.1 ml of each is plated-out on CASO agar (Merck 1.05458) and incubated at 35° C. for 24 h.\n(§3) In order to determine the initial microbe count, 0.1 ml of the bacteria suspension used are plated-out on CASO agar (Merck 1.05458) and incubated at 35° C. for 24 h.\n(§4) The colonies are subsequently counted, and the microbe count per ml is determined compared with the negative control (12% of ethanol in water).\n(§5) The procedure corresponds to that described in Examples 4 and 5 using the microorganisms shown below. The concentrations indicated are the final use concentrations. In order to prepare the stock solution, double the final concentration were prepared in the solvent indicated. This was subsequently diluted 1:2 with the corresponding microbe suspension. In the case of Aspergillus brasiliensis, the microbe count determination was exceptionally carried out after 48 h."}, "Salmonella enterica": {"tested_on": "Salmonella enterica", "experiment": "Antimicrobial action, microbe count (Example 6)", "assay_type": "cell-based", "settings": "conc. 0.5%; for Δlog: t24 h", "protocol": "as §1, §2, §3, §4, §5"}, "Propionibacterium acnes": {"tested_on": "Propionibacterium acnes", "experiment": "Antimicrobial action, microbe count (Example 6)", "assay_type": "cell-based", "settings": "conc. 0.5%, H2O (12% of ethanol), count t0 2.0 × 10^4", "protocol": "as §1, §2, §3, §4, §5"}, "Echerichia coli": {"tested_on": "Echerichia coli", "experiment": "Antimicrobial action, microbe count (Example 6)", "assay_type": "cell-based", "settings": "conc. 0.5%, H2O (12% of ethanol), count t0 4.6 × 10^4", "protocol": "as §1, §2, §3, §4, §5"}, "Serratia marcescens": {"tested_on": "Serratia marcescens", "experiment": "Antimicrobial action, microbe count (Example 6)", "assay_type": "cell-based", "settings": "conc. 0.5%; for Δlog: t24 h", "protocol": "as §1, §2, §3, §4, §5"}, "Aspergillus brasiliensis": {"tested_on": "Aspergillus brasiliensis", "experiment": "Antimicrobial action, microbe count (Example 6)", "assay_type": "cell-based", "settings": "conc. 0.5%, H2O (12% of ethanol), count t0 2.0 × 10^4", "protocol": "as §1, §2, §3, §4, §5"}, "Pseudomonas aeruginosa": {"tested_on": "Pseudomonas aeruginosa", "experiment": "Antimicrobial action, microbe count (Example 6)", "assay_type": "cell-based", "settings": "conc. 0.5%, H2O (12% of ethanol), count t0 6.8 × 10^4", "protocol": "as §1, §2, §3, §4, §5"}, "Corynebacterium xerosis": {"tested_on": "Corynebacterium xerosis", "experiment": "Antimicrobial action, microbe count (Example 6)", "assay_type": "cell-based", "settings": "conc. 0.5%, H2O (12% of ethanol), count t0 3.5 × 10^4", "protocol": "as §1, §2, §3, §4, §5"}, "[1]": {"tested_on": "Staphylococcus epidermidis", "experiment": "Antimicrobial action, microbe count (Example 6)", "assay_type": "cell-based", "settings": "conc. 0.5%, H2O (12% of ethanol), count t0 3.4 × 10^4", "protocol": "as §1, §2, §3, §4, §5"}, "Candida albicans": {"tested_on": "Candida albicans", "experiment": "Antimicrobial action, microbe count (Example 6)", "assay_type": "cell-based", "settings": "conc. 0.5%; for Δlog: t24 h", "protocol": "as §2, §3, §4, §5"}, "P. acnes (ATCC 6919)": {"tested_on": "P. acnes (ATCC 6919)", "experiment": "Growth inhibition by optical density, Bioscreen C (Example 4)", "assay_type": "cell-based, Propionibacterium acnes", "settings": "1.0% sample in water/ethanol (12% of ethanol) diluted 1 to 2 with bacteria suspension; 37° C.; negative control 1.0", "protocol": "as §1\nResult as optical density of the bacteria suspension after an exposure time of 20 hours: […]"}, "[2]": {"experiment": "Rancimate assay, antioxidative capacity (Example 1)", "settings": "0.1% w/w in soya oil; 120° C.; input of air 201/h", "protocol": "The antioxidative capacity of substances I-9, I-10 and I-2 is determined in the so-called Rancimate assay. The comparative substances used are 4-t-butyl-1-cyclohexanol and tocopherol. The positive standard employed is BHT. The measurement parameter is the time duration (induction time) of the increase in the conductivity of unstabilised soya oil on exposure to air at elevated temperature. The longer the induction time, the greater the stabilising or antioxidant action. The following boundary conditions were maintained: input of air 201/h; temperature 120° C. and sample concentrations of 0.1% w/w each in soya oil. For each test substance, a relative antioxidation-protection factor is determined, which corresponds to the ratio of the induction times with and without test substance: […]"}, "[3]": {"experiment": "Densities and viscosities, Ubbelohde viscometer, to estimate spreadability (Example 10)", "assay_type": "physicochemical", "settings": "25° C.", "protocol": "Measurement of the Dynamic Viscosities in Order to Estimate the Spreadability at 25° C. After measurement of the densities and kinematic viscosities using an Ubbelohde viscometer, the following dynamic viscosities arise: Since spreadabilities and viscosities of cosmetic emollients correlate well, good spreadabilities can be concluded from the viscosities determined."}, "[4]": {"tested_on": "S. epidermidis (ATCC 12228)", "experiment": "Microbe count determination, bacteriostatic or bactericidal action (Example 5)", "assay_type": "cell-based, Staphylococcus epidermidis", "settings": "24 h at 35° C.", "protocol": "as §2, §3, §4"}, "[5]": {"settings": "H2O (12% of ethanol), count t0 6.0 × 10^4"}, "[6]": {"settings": "H2O (12% of ethanol), count t0 6.8 × 10^4"}, "[7]": {"settings": "H2O (12% of ethanol), count t0 3.4 × 10^4"}}, "data": [{"compound": "CCOC(=O)C1CCCCC1O", "note": "(stereo not drawn) [Substance I-2]", "values": [{"measurement": "Microbe count t24 h", "setting": "Malassezia furfur", "value": 0}, {"measurement": "Δlog", "setting": "Malassezia furfur; t24 h", "value": "−2.60"}, {"measurement": "Microbe count t24 h", "setting": "Salmonella enterica; [5]", "value": 0}, {"measurement": "Δlog", "setting": "Salmonella enterica; [5]", "value": "−4.78"}, {"measurement": "Microbe count t24 h", "setting": "Salmonella enterica; H2O, count t0 1.0 × 10^6", "value": "5.0 × 10^4"}, {"measurement": "Δlog", "setting": "Salmonella enterica; H2O, count t0 1.0 × 10^6", "value": "−1.30"}, {"measurement": "Microbe count t24 h", "setting": "Propionibacterium acnes", "value": "1.2 × 10^4"}, {"measurement": "Δlog", "setting": "Propionibacterium acnes; t24 h", "value": "−0.22"}, {"measurement": "Microbe count t24 h", "setting": "Echerichia coli", "value": "1.8 × 10^3"}, {"measurement": "Δlog", "setting": "Echerichia coli; t24 h", "value": "−1.41"}, {"measurement": "Microbe count t24 h", "setting": "Serratia marcescens; [6]", "value": 0}, {"measurement": "Δlog", "setting": "Serratia marcescens; [6]", "value": "−3.83"}, {"measurement": "Microbe count t24 h", "setting": "Serratia marcescens; H2O, count t0 2.9 × 10^5", "value": "9.0 × 10^5"}, {"measurement": "Δlog", "setting": "Serratia marcescens; H2O, count t0 2.9 × 10^5", "value": "+0.49"}, {"measurement": "Δlog", "setting": "Aspergillus brasiliensis; count after 48 h", "value": "−0.30"}, {"measurement": "Microbe count t24 h", "setting": "Aspergillus brasiliensis; count carried out after 48 h", "value": "1.0 × 10^4"}, {"measurement": "Microbe count t24 h", "setting": "Pseudomonas aeruginosa", "value": 0}, {"measurement": "Δlog", "setting": "Pseudomonas aeruginosa; t24 h", "value": "−4.83"}, {"measurement": "Microbe count t24 h", "setting": "Corynebacterium xerosis", "value": 0}, {"measurement": "Δlog", "setting": "Corynebacterium xerosis; t24 h", "value": "−4.54"}, {"measurement": "Microbe count t24 h", "setting": "[1]", "value": "2.0 × 10^4"}, {"measurement": "Δlog", "setting": "[1]; t24 h", "value": "−0.23"}, {"measurement": "Microbe count t24 h", "setting": "Candida albicans; [7]", "value": "3.0 × 10^2"}, {"measurement": "Δlog", "setting": "Candida albicans; [7]", "value": "−2.05"}, {"measurement": "Microbe count t24 h", "setting": "Candida albicans; H2O, count t0 3.8 × 10^5", "value": "2.5 × 10^5"}, {"measurement": "Δlog", "setting": "Candida albicans; H2O, count t0 3.8 × 10^5", "value": "−0.18"}, {"measurement": "OD20h, optical density of the bacteria suspension after 20 hours", "setting": "P. acnes (ATCC 6919)", "value": 0.45}, {"measurement": "Antioxidation-protection factor (ratio of the induction times with and without test substance)", "setting": "[2]", "value": 1.15}, {"measurement": "Density", "setting": "[3]", "value": 1.0564, "unit": "g/mL"}, {"measurement": "Dynamic viscosity (kinematic viscosity × density)", "setting": "[3]", "value": 16.4, "unit": "mPas"}, {"measurement": "Kinematic viscosity", "setting": "[3]; Ubbelohde viscometer", "value": 15.5, "unit": "mm^2/s"}, {"measurement": "Final microbe count", "setting": "[4]; 1.0% sample in 12% ethanol, 500 μl + 500 μl bacteria suspension, initial count 3.8 × 10^4, negative control 5.0 × 10^7", "value": "2.9 × 10^4 CFU/ml"}, {"measurement": "Note: bacteriostatic or bactericidal action", "setting": "[4]; S. epidermidis", "value": "bacteriostatic"}]}]}
